Test results taken from ChEMBL document CHEMBL4308841, “Synthesis, in vitro antiproliferative activity, and kinase inhibitory effects of pyrazole-containing diarylureas and diarylamides” (Eur J Med Chem, 2018).

How the values were obtained:
[1] = test system: HOP-62; assay: Growth inhibition of human HOP62 cells assessed as cell growth at 10 uM incubated for 48 hrs by sulforhodamine B assay relative to control; assay type: functional; details: HOP-62, 48 h, read-out: Activity
[2] = test system: MOLT-4; assay: Growth inhibition of human MOLT4 cells assessed as cell growth at 0.1 uM incubated for 48 hrs by sulforhodamine B assay relative to control; assay type: functional; details: MOLT-4, 48 h, read-out: Activity
[3] = test system: NCI-H322M; assay: Growth inhibition of human NCI-H322M cells assessed as cell growth at 10 uM incubated for 48 hrs by sulforhodamine B assay relative to control; assay type: functional; details: read-out: Activity
[4] = test system: NCI-H460; assay: Growth inhibition of human NCI-H460 cells assessed as cell growth at 0.01 uM incubated for 48 hrs by sulforhodamine B assay relative to control; assay type: functional; details: NCI-H460, 48 h, read-out: Activity
[5] = test system: OVCAR-5; assay: Growth inhibition of human OVCAR5 cells assessed as cell growth at 1 uM incubated for 48 hrs by sulforhodamine B assay relative to control; assay type: functional; details: OVCAR-5, 48 h, read-out: Activity
[6] = test system: NCI-H23; assay: Growth inhibition of human NCI-H23 cells assessed as cell growth at 100 uM incubated for 48 hrs by sulforhodamine B assay relative to control; assay type: functional; details: NCI-H23, 48 h, read-out: Activity
[7] = test system: OVCAR-8; assay: Growth inhibition of human OVCAR8 cells assessed as cell growth at 10 uM incubated for 48 hrs by sulforhodamine B assay relative to control; assay type: functional; details: OVCAR-8, 48 h, read-out: Activity
[8] = test system: OVCAR-5; assay: Growth inhibition of human OVCAR5 cells incubated for 48 hrs by sulforhodamine B assay; assay type: functional, cell-based; details: OVCAR-5, 48 h
[9] = test system: MOLT-4; assay: Growth inhibition of human MOLT4 cells assessed as cell growth at 0.01 uM incubated for 48 hrs by sulforhodamine B assay relative to control; assay type: functional; details: MOLT-4, 48 h, read-out: Activity
[10] = test system: Malme-3M; assay: Growth inhibition of human MALME-3M cells assessed as cell growth at 10 uM incubated for 48 hrs by sulforhodamine B assay relative to control; assay type: functional; details: read-out: Activity
[11] = test system: UACC-257; assay: Growth inhibition of human UACC257 cells assessed as cell growth at 1 uM incubated for 48 hrs by sulforhodamine B assay relative to control; assay type: functional; details: UACC-257, 48 h, read-out: Activity
[12] = test system: RPMI-8226; assay: Growth inhibition of human RPMI8226 cells assessed as cell growth at 10 uM incubated for 48 hrs by sulforhodamine B assay relative to control; assay type: functional; details: RPMI-8226, 48 h, read-out: Activity
[13] = test system: KM12; assay: Growth inhibition of human KM12 cells assessed as cell growth at 10 uM incubated for 48 hrs by sulforhodamine B assay relative to control; assay type: functional; details: KM12, 48 h, read-out: Activity
[14] = test system: NCI-H23; assay: Growth inhibition of human NCI-H23 cells assessed as cell growth at 10 uM incubated for 48 hrs by sulforhodamine B assay relative to control; assay type: functional; details: NCI-H23, 48 h, read-out: Activity
[15] = test system: NCI/ADR-RES; assay: Growth inhibition of human NCI/ADR-RES cells assessed as cell growth at 10 uM incubated for 48 hrs by sulforhodamine B assay relative to control; assay type: functional; details: read-out: Activity
[16] = test system: UO-31; assay: Growth inhibition of human UO31 cells assessed as cell growth at 0.1 uM incubated for 48 hrs by sulforhodamine B assay relative to control; assay type: functional; details: UO-31, 48 h, read-out: Activity
[17] = test system: TK-10; assay: Growth inhibition of human TK10 cells assessed as cell growth at 10 uM incubated for 48 hrs by sulforhodamine B assay relative to control; assay type: functional; details: TK-10, 48 h, read-out: Activity
[18] = test system: OVCAR-3; assay: Growth inhibition of human OVCAR3 cells assessed as cell growth at 10 uM incubated for 48 hrs by sulforhodamine B assay relative to control; assay type: functional; details: OVCAR-3, 48 h, read-out: Activity
[19] = test system: HCC 2998; assay: Growth inhibition of human HCC2998 cells assessed as cell growth at 10 uM incubated for 48 hrs by sulforhodamine B assay relative to control; assay type: functional; details: HCC 2998, 48 h, read-out: Activity
[20] = test system: BT-549; assay: Growth inhibition of human BT549 cells assessed as cell growth at 10 uM incubated for 48 hrs by sulforhodamine B assay relative to control; assay type: functional; details: BT-549, 48 h, read-out: Activity
[21] = test system: IGROV-1; assay: Growth inhibition of human IGROV1 cells assessed as cell growth at 10 uM incubated for 48 hrs by sulforhodamine B assay relative to control; assay type: functional; details: IGROV-1, 48 h, read-out: Activity
[22] = test system: SNB-19; assay: Growth inhibition of human SNB19 cells assessed as cell growth at 10 uM incubated for 48 hrs by sulforhodamine B assay relative to control; assay type: functional; details: SNB-19, 48 h, read-out: Activity
[23] = test system: SF-539; assay: Growth inhibition of human SF539 cells assessed as cell growth at 10 uM incubated for 48 hrs by sulforhodamine B assay relative to control; assay type: functional; details: SF-539, 48 h, read-out: Activity
[24] = test system: MDA-MB-231; assay: Growth inhibition of human MDA-MB-231 cells assessed as cell growth at 10 uM incubated for 48 hrs by sulforhodamine B assay relative to control; assay type: functional; details: MDA-MB-231, 48 h, read-out: Activity
[25] = test system: M14; assay: Growth inhibition of human M14 cells assessed as cell growth at 10 uM incubated for 48 hrs by sulforhodamine B assay relative to control; assay type: functional; details: M14, 48 h, read-out: Activity
[26] = test system: UO-31; assay: Growth inhibition of human UO31 cells incubated for 48 hrs by sulforhodamine B assay; assay type: functional, cell-based; details: UO-31, 48 h
[27] = test system: SF-268; assay: Growth inhibition of human SF268 cells assessed as cell growth at 100 uM incubated for 48 hrs by sulforhodamine B assay relative to control; assay type: functional; details: SF-268, 48 h, read-out: Activity
[28] = test system: SW-620; assay: Growth inhibition of human SW620 cells assessed as cell growth at 10 uM incubated for 48 hrs by sulforhodamine B assay relative to control; assay type: functional; details: SW-620, 48 h, read-out: Activity
[29] = test system: RXF 393; assay: Growth inhibition of human RXF393 cells assessed as cell growth at 10 uM incubated for 48 hrs by sulforhodamine B assay relative to control; assay type: functional; details: RXF 393, 48 h, read-out: Activity
[30] = test system: MCF7; assay: Growth inhibition of human MCF7 cells assessed as cell growth at 10 uM incubated for 48 hrs by sulforhodamine B assay relative to control; assay type: functional; details: MCF7, 48 h, read-out: Activity
[31] = test system: K562; assay: Growth inhibition of human K562 cells assessed as cell growth at 10 uM incubated for 48 hrs by sulforhodamine B assay relative to control; assay type: functional; details: K562, 48 h, read-out: Activity
[32] = test system: MDA-MB-468; assay: Growth inhibition of human MDA-MB-468 cells assessed as cell growth at 10 uM incubated for 48 hrs by sulforhodamine B assay relative to control; assay type: functional; details: MDA-MB-468, 48 h, read-out: Activity
[33] = read-out: LC50 (the source's name)
[34] = read-out: pLC50 (the source's name) (converted)

SMILES: COc1cc(Cl)cc(-c2nn(-c3cccc(NC(=O)Nc4cccc(C(F)(F)F)c4)c3)cc2-c2ccncc2)c1
- growth at 10 µM [1]: 15.5%
- growth at 0.1 µM [2]: 55%
- growth at 10 µM [3]: 26.2%
- growth at 0.01 µM [4]: 102%
- growth at 1 µM [5]: 88%
- growth at 100 µM [6]: -40%
- growth at 10 µM [7]: -12.3%
- GI50 ([8]; read-out: GI50): 3.06 µM
- CC50 [8, 33]: > 100 µM
- TGI ([8]; read-out: TGI): 30.1 µM
- GI50 ([8]; read-out: pGI50 (converted)): 3.09 µM
- CC50 [8, 34]: > 100 µM
- TGI ([8]; read-out: pTGI (converted)): 30.2 µM
- growth at 0.01 µM [9]: 95%
- growth at 10 µM [10]: -16.6%
- growth at 1 µM [11]: 78%
- growth at 10 µM [12]: -14.2%
- growth at 10 µM [13]: 9.81%
- growth at 10 µM [14]: -5.1%
- growth at 10 µM [15]: 3.58%
- growth at 0.1 µM [16]: 50%
- growth at 10 µM [17]: 23.4%
- growth at 10 µM [18]: -0.41%
- growth at 10 µM [19]: 19%
- growth at 10 µM [20]: 12.9%
- growth at 10 µM [21]: 28.9%
- growth at 10 µM [22]: 16.1%
- growth at 10 µM [23]: 17%
- growth at 10 µM [24]: -9.21%
- growth at 10 µM [25]: 9.99%
- IC50 [26]: 1.03 µM
- GI50 ([26]; read-out: GI50): 1.03 µM
- CC50 [26, 33]: > 100 µM
- TGI ([26]; read-out: TGI): 77.5 µM
- GI50 ([26]; read-out: pGI50 (converted)): 1.02 µM
- CC50 [26, 34]: > 100 µM
- TGI ([26]; read-out: pTGI (converted)): 7.76 µM
- growth at 100 µM [27]: -28%
- growth at 10 µM [28]: 11.2%
- growth at 10 µM [29]: 11.8%
- growth at 10 µM [30]: 0.3%
- growth at 10 µM [31]: 7.61%
- growth at 10 µM [32]: 6.89%
